Experiment [1] addresses T1, S1P receptor 5 (Homo sapiens, UniProt Q9H228).
T1 construct: expressed in transfected cells
Put plainly: S1P receptor activation in CHO cells, S1P5. The class given is cell-based. The conditions noted are these: CHO cells over-expressing human S1P5. Put shortly: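 CHO cells stably overexpressing each human S1P receptor subtype, serum-starved 24 h, then stimulated 10 min in serum-free DMEM with 0.1 mg/ml fatty-acid-free BSA ± compounds or S1P. Lysates analysed by Western blot for phospho-Thr202/Tyr204-p42/p44-MAPK and phospho-Ser PKC substrate, normalised to total p42/p44.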

Experiment [2] has as its system Colon (SW-620) cancer cell line. Description: IC50 in cancer cell lines (Table 3), colon. The class given is cell-based, human. Particulars: Mean ± SEM, n ≥ 3. As to the method:
(§1) Having observed a suitable potency of some embodiments of the invention, including, at least with compounds 3-6, 14 in prostate cancer cell lines, other cancer cell lines were tested with these compounds. […] Compounds that were active in prostate cancer cell lines also killed BCR-Abl-positive leukemia cells with similar potency to FTY720.
(§2) Cell culture studies: Sup-B15 cells are maintained at 2-3 million/mL in RPMI 1640 (Mediatech) supplemented with 10% fetal calf serum (FCS, Sigma-Aldrich), 10 mM Hepes (Mediatech), 55 μM β-mercaptoethanol (Sigma-Aldrich), 2 mM L-glutamine (Mediatech), and antibiotics. All adherent cells are maintained at 70-80% confluence. Cell are cultured in the following media: PC3 & A549, Ham's F12K (Corning Cell Gro) supplemented with 10% FCS and antibiotics; DU145 cells, MEM (Corning Cell Gro) supplemented with 10% FCS, 1 mM sodium pyruvate (Mediatech), and antibiotics; SW620 & MDA-MB-231, DMEM (Corning Cell Gro) with 10% FCS, 1 mM sodium pyruvate (Mediatech), and antibiotics; Panc-1 cells, DMEM (Corning Cell Gro) supplemented with 10% FCS and antibiotics. All of the above cell lines are available from the ATCC.
(§3) Viability assays: Cell Titer Glo assays (Cell Titer Glo Luminescent Cell Viability Assay kit, cat #G7571, Promega Corporation) are performed in clear bottom 96-well black cell culture plates (cat #655090, Greiner Bio-One, NC, USA). After plating at 1,000 cells/well in volume of 100 μl, cells are left undisturbed for at least 24 h before drug addition. After 72 h, cells are prepared for analysis by adding 10 μl of 0.1% Triton-X100 in PBS with shaking for 1 min at room temperature (RT). Cell Titer-Glo cell lysis reagent (20 μl) is then added followed by 1 min of shaking and a 10 min incubation in the dark at RT. Luminescence is detected using an IVIS imaging system (IVIS Lumina II, Perkin Elmer, USA). […] IC50s are determined using GraphPad Prism (GraphPad Software, Inc, La Jolla, Calif.). SupB-15 viability was determined by flow cytometry. Cell Titer Glo assays were performed with the other cell lines.

The test system of experiment [3] is Pancreas (PANC-1) cancer cell line. Description: IC50 in cancer cell lines (Table 3), pancreas. It is filed as cell-based, human. The conditions noted are these: Mean ± SEM, n ≥ 3. The protocol: as §1, §2, §3
The subject of experiment [4] is Lung (A-549) cancer cell line. Description: IC50 in cancer cell lines (Table 3), lung. It is filed as cell-based, human. The conditions noted are these: Mean ± SEM, n ≥ 3. As to the method: as §1, §2, §3
For experiment [5], the system named is PC3 prostate cancer cells. Put plainly: Cell viability by vital dye exclusion and flow cytometry in PC3. It is filed as cell-based, human. Particulars: vital dye exclusion (DAPI) and flow cytometry, 72 h. As to the method: Thus, to determine whether analogues in accordance with embodiments of the invention are cytotoxic, studies were conducted using vital dye exclusion and flow cytometry (Table 2).
as §3
(In general: In flow cytometry, cells or beads pass a laser one at a time.)

Experiment [6] deals with Breast (MDA-MB-231) cancer cell line. Put plainly: IC50 in cancer cell lines (Table 3), breast. The conditions noted are these: Mean ± SEM, n ≥ 3. The class given is cell-based, human. The protocol: as §1, §2, §3
The test system of experiment [7] is DU145 prostate cancer cells. Put plainly: Cell Titer Glo proliferation assay in DU145. The class given is cell-based, human. The conditions noted are these: Mean ± SEM, n ≥ 3, read-out: IC50 values in prostate cancer cell lines, DU145. Put shortly:
(§4)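 Cells plated at 1,000 cells/well and left at least 24 h, then exposed to compound for 72 h. Permeabilised with 0.1% Triton-X100, lysed with Cell Titer-Glo reagent, luminescence read; IC50 from dose-response curves. PC3 grown in F12K with 10% FCS, DU145 in MEM with 10% FCS and pyruvate.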
A general note: ATP-based viability assays read luminescence as a measure of living cells.

Experiment [8] relates to PC3 prostate cancer cells. Description: Cell Titer Glo proliferation assay in PC3. The class given is cell-based, human. The conditions noted are these: for IC50: Cell Titer Glo, 72 h, Mean ± SEM, n ≥ 3, read-out: IC50 values in prostate cancer cell lines, PC3; for activity in the prostate cancer cell proliferation assay (in words): PC3 and DU145, Cell Titer Glo. Put shortly: as §4

In experiment [9] the test system is Leukemia (SupB-15) cells. Description: IC50 in cancer cell lines (Table 3), leukemia. The class given is cell-based, human. Particulars: flow cytometry, Mean ± SEM, n ≥ 3. The protocol:
as §1, §2, §3

Where two headings read alike, the source gives them in different places.

By IC50 is commonly meant the midpoint of a concentration-inhibition curve.

T1 sequence (Q9H228 whole entry): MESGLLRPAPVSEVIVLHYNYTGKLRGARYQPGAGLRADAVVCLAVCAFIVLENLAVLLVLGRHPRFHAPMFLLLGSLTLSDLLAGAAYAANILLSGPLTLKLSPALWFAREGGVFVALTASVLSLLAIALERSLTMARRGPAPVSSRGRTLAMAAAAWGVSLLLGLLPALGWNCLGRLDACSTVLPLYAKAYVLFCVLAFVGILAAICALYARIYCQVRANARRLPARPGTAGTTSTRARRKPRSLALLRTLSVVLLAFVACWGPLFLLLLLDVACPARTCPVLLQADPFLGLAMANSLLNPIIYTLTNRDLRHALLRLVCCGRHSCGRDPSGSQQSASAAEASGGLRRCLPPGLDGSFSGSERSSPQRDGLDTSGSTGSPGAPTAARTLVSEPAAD

In the case of `CCCCCCCCc1ccc([C@H]2CCN[C@@H]2CO)cc1.Cl` [Compound 5, (2S,3R)-2-(hydroxymethyl)-3-(4-octylphenyl)Pyrrolidinium chloride], the “activation of S1P receptor 5” value in experiment [1] is reported as “failed to activate”. Also, the IC50 was determined as 2.5 ± 0.1 µM in experiment [2] (Homo sapiens, SW-620); 3.3 ± 0.5 µM in [3] (Homo sapiens, PANC-1); 8.9 ± 1.4 µM in experiment [4] (Homo sapiens, A549); 5.5 ± 0.4 µM in experiment [5] (Homo sapiens); 2.1 ± 0.2 µM in experiment [6] (Homo sapiens, MDA-MB-231); 3.8 ± 0.4 µM in experiment [7] (Homo sapiens, DU-145, 72 h). Moreover, the IC50 is 4 ± 0.7 µM in [8] (Homo sapiens) and 5.1 ± 0.9 µM in experiment [9] (Homo sapiens, SUP-B15). In addition, the “activity in the prostate cancer cell proliferation assay (in words)” value in experiment [8] is recorded as “as active as FTY720”.
As for `CCCCCCCCc1ccc([C@@H]2CCN[C@H]2CO)cc1.Cl` [Compound 6], the “activation of S1P receptor 5” value in [1] is given as “failed to activate”. Also, the IC50 is 2.1 ± 0.2 µM in [2]; 5 ± 0.9 µM in experiment [3]; 8.4 ± 1.2 µM in [4]; 5.4 ± 0.6 µM in experiment [5]; 4.9 ± 0.6 µM in [6]; 3.7 ± 0.4 µM in experiment [7] (72 h). Moreover, the IC50 in [8] came out at 3 ± 0.4 µM; in experiment [9], 5.9 ± 0.1 µM. In addition, the “activity in the prostate cancer cell proliferation assay (in words)” value in [8] is “as active as FTY720”.
For `CCCCCCCCc1ccc(CCC(N)(CO)CO)cc1.Cl` [FTY720, 2-Amino-2-[2-(4-octylphenyl)ethyl]propane 1,3-diol hydrochloride, reference compound], the IC50 in experiment [2] (Homo sapiens, SW-620) was 2.8 ± 0.1 µM; in experiment [3] (Homo sapiens, PANC-1), 4.6 ± 0.5 µM; in experiment [4] (Homo sapiens, A549), 6 ± 0.4 µM; in experiment [5] (Homo sapiens), 4.8 ± 0.1 µM; in experiment [6] (Homo sapiens, MDA-MB-231) it was 4 ± 0.1 µM; in experiment [7] (Homo sapiens, DU-145, 72 h), 3.1 ± 0.2 µM. Further, the IC50 in [8] (Homo sapiens) came out at 2.6 ± 0.2 µM; in experiment [9] (Homo sapiens, SUP-B15) it was 6.8 ± 0.7 µM.
